Test results from US11548897B2, “Crystalline forms of a triazolopyrimidine compound” (NOVARTIS AG, priority 2016, dated 2023).

Tests used:
[1] = Solubility in selected solvents (Table 2); format: physicochemical; details: thermodynamic from solid; for solubility at 2 h: 50° C.; for solubility: rt
Description: To 10 mg of compound X in a sample vial at 50° C., selected solvent was added dropwise. The addition of solvent was stopped when a clear solution was reached or when the amount of solvent reached 1 mL. The resulting mixture was stirred continuously at 50° C. for 2 h, then cooled to rt, and stirred overnight. The solubilities at 50° C. and rt were determined by the homogeneity of the resulting mixture.

[2] = Rodent pharmacokinetic studies, exposure versus dose; format: in vivo; details: higher doses
[3] = tested on: B cell lymphoma cell KARPAS422; assay: Analysis of cell proliferation; format: cell-based; details: Homo sapiens, KARPAS-422, 336 h; KARPAS422, after 14 days of treatment; read-out: antiproliferative activities (IC50 values)
Description: Analysis of Cell Proliferation
B cell lymphoma cell KARPAS422 was cultured using standard cell culture conditions in RPMI-1640 (Invitrogen, cat #11875) supplemented with 15% FBS (Invitrogen, cat #10099-141) in humidified incubator at 37° C., 5% CO2. To assess the effect of PRC2 inhibition on cell proliferation, exponentially growing cells were seeded at a density of 1×10^5 cells/mL in 12-well plate (Corning, cat #CLS3513). After cell seeding, a compound of the present invention was added to the cell media (in concentrations ranging from 0 to 100 μM, 3× dilution series). Viable cell numbers were determined every 3-4 days for up to 14 days using Vi-CELL (Beckman Coulter). On days of cell counting, fresh growth media and compound were replenished and cells split back to a density of 1×10^5 cells/mL. Total cell number is expressed as split-adjusted viable cells per mL. The dose response curves and IC50 values were generated using Prism.

[4] = Aqueous solubility (pH 7.4, simulated gastric fluid); format: physicochemical
[5] = tested on: H3K27 methylation in G401 cell; assay: ELISA (H3K27 methylation) assay; format: cell-based; details: Homo sapiens, G-401; ELISA Qualified, G401 cells, 48 h; read-out: (c) IC50
Description: ELISA (H3K27 Methylation) Assay
Representative compounds of the present invention were serially and separately diluted 3-fold in DMSO to obtain a total of eight or twelve concentrations. Then the compounds were added to G401 cell cultured in 384-well plate at 1:500 dilution to obtain the highest concentration of 20 μM. The cells were further cultured for 48 h before ELISA procedure.
Histone extraction: Cells, in 384-well plate, were washed with PBS (10×PBS buffer (80 g NaCl (Sigma, S3014), 2 g KCl (Sigma, 60128), 14.4 g Na2HPO4 (Sigma, S5136), 2.4 g KH2PO4 (Sigma, P9791) to 1 L water, pH to 7.4) and lysed with the addition of lysis buffer (0.4N HCl; 45 μL per well). The plate was gently agitated at 4° C. for 30 min. The cell lysate was neutralized with neutralization buffer (0.5 M sodium phosphate dibasic, pH 12.5, 1 mM DTT; 36 μL per well). The plate was agitated to ensure the lysates were well mixed prior to the ELISA protocol.
ELISA protocol: Cell lysates were transferred to the wells of a 384-well plate and the final volume was adjusted to 50 μL per well with PBS. The plate was sealed, centrifuged at 2,000 rpm for 2 min and incubated at 4° C. for about 16 h. […] The signal was read using a PerkinElmer Envision Reader. The H3K27 methylation readouts were normalized using H3 signal and then percentage inhibition was calculated against the samples treated with DMSO. […]

[6] = Stability of solid form to humidity and temperature; format: physicochemical
Description: Dynamic vapor sorption was performed on a Surface Measurement Systems DVS Advantage instrument. Approximately 10 mg of material was loaded into a sample pan. The samples were exposed to sorption/desorption cycles in 10% relative humidity (RH) steps over the range of 50%-90%-0%-90%-50% RH at 25° C. and 50° C. A target equilibrium condition of mass change less than 0.002% over 5 min was set, with minimum and maximum equilibrium periods of 10 and 360 min, respectively. The carrier gas was nitrogen with a flow rate of 100 mL/min. The system is calibrated with saturated salt solutions. The weight percentage change (wt %) of the sample at each stage was measured and plotted versus the target partial pressure.

[7] = aqueous with cosolvent or surfactant or cyclodextrin, Acetone/H2O (1/1)
[8] = aqueous with cosolvent or surfactant or cyclodextrin, EtOH/H2O (1/1)
[9] = organic solvent or mixture, ACN
[10] = organic solvent or mixture, Acetone
[11] = organic solvent or mixture, EtOAc
[12] = organic solvent or mixture, EtOH
[13] = organic solvent or mixture, Heptane
[14] = organic solvent or mixture, IPA
[15] = organic solvent or mixture, MTBE
[16] = organic solvent or mixture, MeOH
[17] = organic solvent or mixture, THF

Row | Compound | solubility at 2 h [1, 7] | solubility [1, 7] | solubility at 2 h [1, 8] | solubility [1, 8] | solubility at 2 h [1, 9] | solubility [1, 9] | solubility at 2 h [1, 10] | solubility [1, 10] | solubility at 2 h [1, 11] | solubility [1, 11] | solubility at 2 h [1, 12] | solubility [1, 12] | solubility at 2 h [1, 13] | solubility [1, 13] | solubility at 2 h [1, 14] | solubility [1, 14] | solubility at 2 h [1, 15] | solubility [1, 15] | solubility at 2 h [1, 16] | solubility [1, 16] | other results
1 | Cc1ncccc1-c1cnc(NCc2c(F)ccc3c2CCO3)n2cnnc12 [Compound A, N-((5-Fluoro-2,3-dihydrobenzofuran-4-yl)methyl)-8-(2-methylpyridin-3-yl)-[1,2,4]triazolo[4,3-c]pyrimidin-5-amine] | < 10000 µg/mL | < 10000 µg/mL | < 10000 µg/mL | < 10000 µg/mL | < 10000 µg/mL | < 10000 µg/mL | < 10000 µg/mL | < 10000 µg/mL | < 10000 µg/mL | < 10000 µg/mL | < 10000 µg/mL | < 10000 µg/mL | < 10000 µg/mL | < 10000 µg/mL | < 10000 µg/mL | < 10000 µg/mL | < 10000 µg/mL | < 10000 µg/mL | < 10000 µg/mL | < 10000 µg/mL | solubility at 2 h [1, 17]: < 10000 µg/mL; solubility [1, 17]: < 10000 µg/mL; solubility at 2 h ([1]; Water): < 10000 µg/mL; solubility ([1]; Water): < 10000 µg/mL; exposure relative to dose [2]: under-proportional; IC50 [3]: 3 nM; aqueous solubility ([4]; physiologically relevant pH level of 7.4): low; aqueous solubility ([4]; simulated gastric fluid (SGF)): low; IC50 [5]: 2.6 nM
2 | Cc1ncccc1-c1cnc(NCc2c(F)ccc3c2CCO3)n2cnnc12.Cl [Form HA, N-((5-Fluoro-2,3-dihydrobenzofuran-4-yl)methyl)-8-(2-methylpyridin-3-yl)-[1,2,4]triazolo[4,3-c]pyrimidin-5-amine hydrochloride] | – | – | – | – | – | – | – | – | – | – | – | – | – | – | – | – | – | – | – | – | stability to humidity and temperature [6]: acceptable stability
3 | Cc1ncccc1-c1cnc(NCc2c(F)ccc3c2CCO3)n2cnnc12.Cl [Compound X, N-((5-Fluoro-2,3-dihydrobenzofuran-4-yl)methyl)-8-(2-methylpyridin-3-yl)-[1,2,4]triazolo[4,3-c]pyrimidin-5-amine hydrochloride] | > 50000 µg/mL | < 50000 µg/mL | > 50000 µg/mL | < 50000 µg/mL | < 10000 µg/mL | < 10000 µg/mL | < 10000 µg/mL | < 10000 µg/mL | < 10000 µg/mL | < 10000 µg/mL | < 10000 µg/mL | < 10000 µg/mL | < 10000 µg/mL | < 10000 µg/mL | < 10000 µg/mL | < 10000 µg/mL | < 10000 µg/mL | < 10000 µg/mL | > 10000 µg/mL | > 10000 µg/mL | solubility at 2 h [1, 17]: < 10000 µg/mL; solubility [1, 17]: < 10000 µg/mL; solubility at 2 h ([1]; Water): < 10000 µg/mL; solubility ([1]; Water): < 10000 µg/mL; exposure relative to dose [2]: dose-proportional
